Laboratory results reported in PubChem BioAssay (NCI).
“And” between values parts separate entries of the source, which are not always exact repeats. Equal entries are not always repeated.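 Grown in 96-well plates, cells were treated for 48 hours with each compound at five concentrations. Insufficient inhibition: endpoint recorded as highest concentration tested. GI50 marks 50% less growth. TGI denotes the concentration required for complete inhibition of growth.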

Legend:
Test in all cases: NCI anticancer screen, dose series, 48 h
[1] = test system: SNB-19 CNS
[2] = test system: ACHN renal
[3] = test system: RPMI-8226 leukemia
[4] = test system: SW-620 colon
[5] = test system: HCT-15 colon
[6] = test system: K-562 leukemia
[7] = test system: SF-539 CNS
[8] = test system: SK-MEL-5 melanoma
[9] = test system: UACC-62 melanoma
[10] = test system: BT-549 breast

## C1CC2=C(C1)C1=S(S2)SC2=C1CCC2
[1]
  TGI: > 100 µM
[2]
  TGI: > 100 µM
[3]
  TGI: > 100 µM
[4]
  TGI: > 100 µM
[5]
  TGI: > 100 µM
[6]
  TGI: > 100 µM
[7]
  TGI: > 100 µM
[8]
  TGI: > 100 µM
[9]
  TGI: > 100 µM

## CCN(CC)c1nc(NC2CCCCC2)c2nc(N(CC)CC)nc(NC3CCCCC3)c2n1
[1]
  TGI: > 100 µM
[2]
  TGI: > 100 µM
[4]
  TGI: > 100 µM
[5]
  TGI: > 100 µM
[6]
  TGI: > 100 µM
[7]
  TGI: > 100 µM
[10]
  TGI: > 100 µM
[8]
  TGI: > 100 µM
[9]
  TGI: > 100 µM

## O=c1[nH]c(=O)n(C2CC(O)C(CO)O2)cc1COCC(F)(F)F (centres undefined)
[1]
  TGI: > 100 µM
[2]
  TGI: > 100 µM
[3]
  TGI: > 100 µM
[4]
  TGI: > 100 µM
[6]
  TGI: > 100 µM
[7]
  TGI: > 100 µM
[8]
  TGI: > 100 µM
[9]
  TGI: > 100 µM

## CC(C)C(=S)N(C)O
[1]
  TGI: > 100 µM
[2]
  TGI: > 100 µM
[3]
  TGI: > 52.6 µM
[4]
  TGI: > 61.5 µM
[5]
  TGI: > 100 µM
[6]
  TGI: > 100 µM
[7]
  TGI: 89.7 µM
[8]
  TGI: > 77.7 µM
[9]
  TGI: > 61.9 µM

## CCN(CC)c1ccc(N=Nc2ccc(-c3nc4cccn(C)c-4n3)cc2)cc1
[1]
  TGI: 52.4 µM
[3]
  TGI: 7.07 µM
[4]
  TGI: 22.9 µM
[5]
  TGI: 21 µM
[6]
  TGI: 11.9 µM
[7]
  TGI: 25.8 µM
[8]
  TGI: 16.8 µM
[9]
  TGI: 27.1 µM

## COc1cc(Nc2ncnc(Nc3ccc4c(n3)NC(=O)C(C)(C)O4)n2)cc(OC)c1OC
[1]
  GI50: 9.78 µM
  TGI: > 100 µM
[2]
  GI50: 0.16 µM
  TGI: 23.7 µM
[4]
  GI50: 2.73 µM
  TGI: > 100 µM
[5]
  GI50: 1.7 µM
  TGI: > 100 µM
[6]
  GI50: 3.55 µM
  TGI: > 100 µM
[7]
  GI50: 0.23 µM
  TGI: 0.673 µM
[8]
  GI50: > 100 µM
  TGI: > 100 µM
[9]
  GI50: 2.36 µM
  TGI: > 100 µM

## CNCCCNc1c2ccccc2nc2cccc([N+](=O)[O-])c12
[1]
  TGI: 0.0309 µM and 0.13 µM
[2]
  TGI: 0.0152 µM
[4]
  TGI: 0.0357 µM and 0.0101 µM
[5]
  TGI: 0.0207 µM and 0.0116 µM
[7]
  TGI: 0.0163 µM and 0.0172 µM
[10]
  TGI: 0.0101 µM
[8]
  TGI: 0.00982 µM
[9]
  TGI: 0.00942 µM

## CC1=C(C(=O)Nc2ccccc2)C(c2cc(Cl)cc(Cl)c2)C(C(=O)Nc2ccccc2)=C(C)N1
[1]
  TGI: 27.5 µM
[2]
  TGI: 47.2 µM
[3]
  TGI: 25.2 µM
[4]
  TGI: 25.9 µM
[5]
  TGI: 18.6 µM
[6]
  TGI: 13.6 µM
[7]
  TGI: 32.8 µM
[8]
  TGI: 27.7 µM
[9]
  TGI: 22.2 µM

## Clc1ccc(OCc2nnc3n2N=C(c2ccccc2)CS3)c(Cl)c1
[1]
  TGI: > 100 µM
[2]
  TGI: > 100 µM
[4]
  TGI: > 100 µM
[5]
  TGI: > 100 µM
[6]
  TGI: > 100 µM
[7]
  TGI: 91.1 µM
[8]
  TGI: > 100 µM
[9]
  TGI: > 100 µM

## Cc1cn2c(/C=N/N=C(N)N)c(-c3ccncc3)nc2s1
[1]
  GI50: 16.4 µM
  TGI: 31.3 µM
[2]
  GI50: 18.5 µM
  TGI: 32.5 µM
[4]
  GI50: 18.9 µM
  TGI: 33.8 µM
[5]
  GI50: 44.1 µM
  TGI: > 100 µM
[6]
  GI50: 15.4 µM
  TGI: 34 µM
[8]
  GI50: 19.8 µM
  TGI: 34.6 µM
[9]
  GI50: 19 µM
  TGI: 34.1 µM

## CCOC(=O)C1=C(C(=O)OCC)C2(c3ccccc3)N(O1)c1ccccc1C2(C)C (centres undefined)
[1]
  TGI: > 100 µM
[3]
  TGI: 57.3 µM
[4]
  TGI: > 100 µM
[6]
  TGI: > 100 µM
[7]
  TGI: > 100 µM
[8]
  TGI: > 100 µM
[9]
  TGI: > 100 µM

## O=C1C=C(Nc2ccc(S(=O)(=O)Nc3ncccn3)cc2)c2ccccc2C1=O
[1]
  TGI: 90.2 µM
[2]
  TGI: 70.4 µM
[3]
  TGI: 97.2 µM
[4]
  TGI: 35.1 µM
[5]
  TGI: 47 µM
[6]
  TGI: 49.4 µM
[7]
  TGI: 58.4 µM
[8]
  TGI: 32.9 µM
[9]
  TGI: 32.9 µM

## COC(=O)N/N=C(\C)C(CN(C)C)C(c1ccccc1)c1c(O)c2ccccc2oc1=O (centres undefined)
[1]
  TGI: > 100 µM
[2]
  TGI: > 100 µM
[3]
  TGI: > 100 µM
[4]
  TGI: > 100 µM
[5]
  TGI: > 100 µM
[6]
  TGI: > 100 µM
[7]
  TGI: > 100 µM
[8]
  TGI: > 100 µM
[9]
  TGI: > 100 µM

## C/C(O)=C(\N=O)C(=O)NCc1ccccc1
[1]
  TGI: > 100 µM
[2]
  TGI: > 100 µM
[3]
  TGI: > 100 µM
[4]
  TGI: 31.4 µM
[5]
  TGI: > 100 µM
[6]
  TGI: > 100 µM
[7]
  TGI: > 100 µM
[8]
  TGI: > 100 µM
[9]
  TGI: > 100 µM

## CCC[CH2][Sn]([CH2]CCC)([O]C(=O)c1cccc(F)c1F)[O]C(=O)c1cccc(F)c1F
[1]
  GI50: 1.48 µM
  TGI: 2.8 µM
[2]
  GI50: 1.28 µM
  TGI: 2.55 µM
[4]
  GI50: 0.472 µM
  TGI: 1.67 µM
[5]
  GI50: 1.25 µM
  TGI: 2.51 µM
[6]
  GI50: 0.207 µM
  TGI: 1.08 µM
[7]
  GI50: 1.27 µM
  TGI: 2.56 µM
[8]
  GI50: 1.52 µM
  TGI: 2.87 µM
[9]
  GI50: 1.22 µM
  TGI: 2.46 µM

## CCCCCCCCCCOC(=O)c1cc[n+](C)cc1
[1]
  TGI: 30.4 µM
[2]
  TGI: 33.2 µM
[3]
  TGI: 38.2 µM
[4]
  TGI: 34.5 µM
[5]
  TGI: 29.5 µM
[6]
  TGI: 34.2 µM
[7]
  TGI: 29.8 µM
[8]
  TGI: 33.6 µM
[9]
  TGI: 34 µM

## c1ccc(C2CC(c3ccc4ccccc4c3)=Nc3ccccc3S2)cc1 (centres undefined)
[1]
  TGI: 36.7 µM
[2]
  TGI: 31.2 µM
[3]
  TGI: > 100 µM
[4]
  TGI: 33.8 µM
[6]
  TGI: 59.3 µM
[7]
  TGI: 31.5 µM
[8]
  TGI: 35.3 µM
[9]
  TGI: 35.2 µM

## COc1ccc2c(c1)CCc1c(CO)c(COC(=O)NC(C)C)n(C)c1-2
[1]
  TGI: 56.1 µM
[2]
  TGI: 53.1 µM
[3]
  TGI: 7.05 µM
[4]
  TGI: 19.3 µM
[5]
  TGI: 60.8 µM
[6]
  TGI: 10.5 µM
[7]
  TGI: > 87 µM
[8]
  TGI: 15.1 µM
[9]
  TGI: 22.7 µM

## N#C/C(=C\c1ccccc1)C(NO)Nc1ccccc1 (centres undefined)
[1]
  TGI: > 100 µM
[2]
  TGI: > 100 µM
[3]
  TGI: > 100 µM
[4]
  TGI: > 100 µM
[5]
  TGI: > 100 µM
[6]
  TGI: > 100 µM
[7]
  TGI: > 100 µM
[8]
  TGI: > 100 µM
[9]
  TGI: > 100 µM

## Cc1ccccc1N=Nc1c(-c2ccccc2)nn(C(=O)CC(=O)Nc2cccc(Cl)c2)c1-c1ccccc1
[1]
  TGI: > 100 µM
[2]
  TGI: > 31.6 µM
[3]
  TGI: 21.2 µM
[4]
  TGI: > 39.2 µM
[5]
  TGI: > 31.6 µM
[6]
  TGI: > 31.6 µM
[7]
  TGI: > 31.6 µM
[8]
  TGI: 24.9 µM
[9]
  TGI: > 31.6 µM

## CCCCN1C(=O)/C(=c2\sc3n(c2=O)C2C(NN=3)N(CC)C(=O)N2CC)c2ccccc21 (centres undefined)
[1]
  GI50: 1.61 µM
  TGI: 28.1 µM
[4]
  GI50: 0.442 µM
  TGI: > 100 µM
[6]
  GI50: 0.542 µM
  TGI: > 100 µM
[7]
  GI50: 0.371 µM
  TGI: 1.46 µM
[10]
  GI50: 1.76 µM
  TGI: 9.19 µM
[9]
  GI50: 0.502 µM
  TGI: 3.55 µM
